Source: PMC11480411, “Mucosal sugars delineate pyrazine vs pyrazinone autoinducer signaling in Klebsiella oxytoca” (Nature Communications, 2024)

Experiments:
S. enterica Typhimurium = tested on: S. enterica Typhimurium; parameters: method as in PMID 36929450; settings: 100 µM (supra-physiological); cited from earlier work
[1] = tested on: leup operon (leupeptin BGC) promoter in K. oxytoca ATCC 8724; test: GFP-based transcriptional reporter for the leup operon; format: cell-based, Klebsiella oxytoca; settings: carbohydrate screen, M9 + casamino acid + 0.4% indicated sugar, 30 °C, 24 h
Description: We previously examined a panel of 84 clinical K. oxytoca isolates (including recently renamed Klebsiella michiganensis isolates) for the presence of either the leup operon or npsB, an NRPS of the tilimycin/tilivalline gene cluster. […] While the roles of tilivalline and tilimycin in hemorrhagic colitis are well studied[8],[9], the operon for leupeptin biosynthesis is “silent” in K. oxytoca under typical laboratory culture conditions (i.e., leupeptin production is undetectable). Therefore, our study commenced by exploring growth conditions required to trigger leupeptin biosynthesis in K. oxytoca. To achieve this, we generated a green fluorescent protein (GFP)-based reporter system to monitor leup transcription in K. oxytoca ATCC 8724 (recently renamed as Klebsiella michiganensis (ATCC 8724), Fig. 1a). We utilized λ-red recombineering techniques[38] to replace the first biosynthetic gene (leupA) of the leupeptin BGC with a GFP-spectinomycin resistance cassette. […] Consequently, conditions that elicit transcription of the leupeptin BGC can be monitored by GFP fluorescence intensity.
(§1) 5 mL of the leupeptin reporter strain was cultured aerobically in 10 g/L of LB (Becton Dickinson), yeast extract, GAM (HiMedia Laboratories), horse liver extract (HiMedia Laboratories), malt extract (VWR), meat extract (HiMedia Laboratories), YPD (Dot Scienticifc), brain heart infusion (Becton Dickinson), porcine mucin (Sigma-Aldrich, M1778), clostridial (Becton Dickinson), TSB (VWR), or casamino acid supplemented (5 g/L, VWR) M9 minimal salts (MP Biomedicals) at 30 °C for 24 h at 250 rpm. Cultures were lysed via sonication, centrifuged, and 150 µL of the supernatants were aliquoted into black well clear bottom 96 well plates. GFP fluorescence measurements were performed on a BioTek Synergy H1 plate reader with an excitation wavelength of 488 nm and an emission wavelength of 525 nm. For the carbohydrate screen, the leupeptin reporter strain was cultured in M9 minimal medium (MPbio) supplemented with casamino acid (5 g/L, VWR) and 0.4% indicated sugar aerobically at 30 °C for 24 h at 250 rpm.

[2] = tested on: wildtype K. oxytoca ATCC 8724; test: Leupeptin detection in culture extracts by HPLC-QTOF-MS; format: cell-based, Klebsiella oxytoca; settings: added to cultivation medium
Description: as §1
For MS-based determination of leupeptin activation, wildtype K. oxytoca ATCC 8724 was cultured in 5 mL of M9 minimal medium supplemented with 5 g/L casamino acids and 0.4% Neu5Ac. […] To measure the area under the curves for specific molecular features, the exact monoprotonated [M + H]^+ mass was calculated and extracted ion chromatographs (EICs) with a 10-ppm error were constructed. […]

K. oxytoca = test: Culture growth (OD600) with sialic acid supplementation; format: cell-based, Klebsiella oxytoca; settings: M9+CAS with sialic acid, peer review file, not added to the study
Description: as 2 times the recorded value). Importantly, all cultures in this experiment grew. […]
supplemented cultures. All cultures had reached stationary phase after 24 hours. While Neu5Gc cultures did grow slower than Neu5Ac cultures, the term suppression was incorrect. Therefore, we deleted text around Neu5Gc suppression and have changed line 123 to now read: […]
the SI. The following growth analysis was not added to the study.
2. Fig3 describes the role of PLP-enzyme for the production of pyrazines (features 5-9). From
Fig.3a it is clear that features 5 and 7 are different from 6, 8, and 9. Are there functional differences between these 2 groups of compounds in terms of siderophore production? […]
complementation of the pyr mutant with feature 7 could induce siderophore production (Fig4).
What about the features from the other group (6, 8, and 9)?
To address this comment, we performed RNA-seq analysis feeding compound 6 and looked at regulated genes/operons. Similar to compound 7, compound 6 supplementation increased the […]
a table listing specific genes, is now included in the SI. As such, lines 345-348 now read: […]
compound also differentially regulated the transcriptome (201 genes with Padj < 0.05; abs(log2FC) > 1) and enhanced the transcription of genes related to iron acquisition and iron metabolism (Supplemental Information).”
(also on this page, place not known: value ). PLP -enzyme -9). […]

Structure (SMILES)	effect on iron acquisition pathways (S. enterica Typhimurium)	GFP fluorescence, GFP Strain + Media ([1]; leup GFP reporter strain) [RFU]	GFP fluorescence, WT + Media ([1]; wildtype K. oxytoca without reporter (background)) [RFU]	induction of leupeptin (1) production [2]	culture growth (K. oxytoca)
Cc1c[nH]c(=O)c(C)n1 [DPO, dimethylpyrazine-2-ol]	downregulated iron acquisition pathways				
CC(=O)N[C@H]1[C@H]([C@H](O)[C@H](O)CO)OC(O)(C(=O)O)C[C@@H]1O (some centres unmarked) [Neu5Ac, N-acetylneuraminic acid]		85763	8846	robust detection of leupeptin	grew fastest
